Test results: patent US20140221301A1, “COMBINATION TREATMENT FOR CANCER” (priority 2011, published 2014)

Legend:
TEX cells = assay: Apoptosis by Annexin V flow cytometry in TEX cells; assay type: cell-based, human; conditions: over time
Description: (§1) FIG. 1. […] (A) TEX and (B) M9-ENL1 cells were plated in 96-well plates and drugs were added to the wells (5 μL per well) for final concentrations of 10 μM (shown) and 1 μM. Cell growth and viability was measured at 48 hours (M9-ENL-1) and 72 hours (TEX) by MTS assay. Cell viability is shown for each compound as a percent of cells treated with DMSO alone. (C) Leukemia, (D) myeloma, and (E) solid tumor cell lines were seeded in 96-well plates and then treated with increasing concentrations of tigecycline. Cell growth and viability was measured at 72 hours by MTS assay. Cell viability is expressed as mean percentage plus or minus SD (n=3) relative to vehicle-treated cells. […] Cell viability was measured at 72 hours by MTS assay. Cell viability is expressed as mean percentage plus or minus SD (n=3) relative to vehicle-treated cells.
(§2) Cell growth and viability was assessed by the MTS assay (Promega, Madison, Wis.) according to the manufacturer's instructions. Apoptosis and cell death was measured by Annexin V-fluroscein isothiocyanate (FITC; Biovision Research Products, Mountain View, Calif.), propidium iodide staining and flow cytometry according to the manufacturer's instructions and as previously described^30.

[1] = system: normal hematopoietic cells from G-CSF mobilized normal donors; assay: Mitochondrial membrane potential, JC-1, normal hematopoietic cells; assay type: cell-based, human; conditions: normal cells from two G-CSF mobilized donors
Description: FIG. 4. Tigecycline decreases mitochondrial Cox-1 protein levels in TEX cells. (A) Cells from TEX, OCI-AML2 and two primary AML patients were treated with increasing concentrations (2.5 μM and 5 μM) of tigecycline for 36 and 48 hours of tigecycline. Total proteins were extracted and analyzed by western blotting for Cox-1, Cox-2, Cox-4, grp78, XIAP, actin and tubulin. (B) TEX and AML patient cells were treated with increasing concentrations (2.5 μM and 5 μM) of tigecycline. Cox-1, Cox-2, and Cox-4 mRNA expression relative 18S was determined by quantitative RT-PCR. Data is shown as mean±SD. […] Complex I, II and IV enzyme activity relative to citrate synthase activity was determined as described in materials and methods. […] Mitochondrial membrane potential (ΔΨ) was determined by staining cells with JC-1 dye, and flow cytometry analysis (Red/Green ratio). Reactive oxygen species generation (ROS) was determined by staining with h2-DCFDA and Dihydroethidium (DHE).
To measure mitochondrial membrane potential, cells were treated with tigecycline similarly as described above and then washed twice with PBS and incubated with 5 μM of 5,5′,6,6′-tetrachloro-1,1′,3,3′-tetraethyl benzimidazolylcarbocyanine iodide (JC-1, Sigma-Aldrich) for 20 minutes at 37° C. Each sample was then washed twice with 1 mL PBS and resuspended in 500 μL PBS prior to being read on a BD FACSCalibur. […]

[2] = system: normal hematopoietic cells; assay: Methylcellulose colony formation assay, normal hematopoietic cells; assay type: cell-based, human; conditions: 5 μM, normal hematopoietic cells n=5, 14 days
Description: (§3) FIG. 2. Tigecycline induces cell death and inhibits clonogenic growth in primary AML cells preferential over normal hematopoietic cells. Mononuclear cells from peripheral blood of leukemia patients (blast count>80%) and normal G-CSF expanded donors was treated with increasing concentrations of tigecycline for 48 hours. Cell viability was measured by Annexin-PI flow cytometry staining. Cell viability is expressed as a mean percentage plus or minus SD (n=3) relative to DMSO-treated cells. Mononuclear cells from primary AML patient samples (A, B) and normal peripheral blood cells (C) were plated in methylcelluose with 5 μM of Tigecycline. (D) Colony forming units were counted at 7 days (AML) and 14 days (Normal) post plating. […]
(§4) To assess clonogenic growth, primary AML cells (1.0×10^5/mL) or granulocyte colony-stimulating factor (G-CSF) mobilized PBSCs (1.0×10^5/mL) were plated in duplicate with increasing concentrations of tigecycline in MethoCult GF H4434 medium (StemCell Technologies, Vancouver, BC) containing 1% methycellulose in IMDM, 30% FCS, 1% bovine serum albumin, 3 U/mL of recombinant human erythropoietin, 10^−4 M of 2-mercaptoethanol, 2 mM of L-glutamine, 50 ng/mL of recombinant human stem cell factor, 10 ng/mL of GM-CSF, and 10 ng/mL of rh IL-3). Seven days (AML samples) or 14 days (normal PBCS) after plating, the number of colonies was counted as previously described^31.

[3] = system: primary AML patient samples; assay: Methylcellulose colony formation assay, primary AML cells; assay type: cell-based, human; conditions: 5 μM, primary AML patient samples n=7, 7 days
Description: as §3, §4

myeloma cell lines = assay: Cell growth and viability, MTS assay, myeloma cell lines; assay type: cell-based; conditions: 72 hours
Description: as §1
Human leukemia (OCI-AML2, HL60, U937) cell lines were maintained in RPMI 1640 medium. Myeloma (LP-1, KMS11, 8226, JJN3, OP-M2) cell lines were maintained in Iscove's media. […]
as §2

[4] = system: bacterial protein synthesis; conditions: cited from earlier work

SMILES: CN(C)c1cc(NC(=O)CNC(C)(C)C)c(O)c2c1C[C@H]1C[C@H]3[C@H](N(C)C)C(O)=C(C(N)=O)C(=O)[C@@]3(O)C(O)=C1C2=O [tigecycline]
- apoptosis, percentage of cells labeled by Annexin V (TEX cells): time-dependent increases in apoptosis
- loss of mitochondrial membrane potential [1]: not seen
- reduction of clonogenic growth [2]: 34±5%
- reduction of clonogenic growth [3]: 93±4%
- IC50 (myeloma cell lines): > 10 µM
- inhibition of bacterial protein synthesis, fold greater than minocycline ([4]; relative to minocycline): 3 fold
- inhibition of bacterial protein synthesis, fold greater than tetracycline ([4]; relative to tetracycline): 20 fold
